“Also recorded” adds a separate entry of the source.
Columns and labels:
[1] = tested on: Cryptomeria japonica male flower buds and needle leaves; test: Evaluation 1: immersion test of Cryptomeria japonica
Procedure: Evaluation 1 (Immersion Test of Cryptomeria japonica)
First, as agents to be used for an immersion test of Cryptomeria japonica, fatty acid derivative, fatty acid, polyoxyalkylene derivative, fats and oils and the like shown in Tables 1 and 2 were prepared. Next, many branches (length about 10 cm) of Cryptomeria japonica with 15 male flower buds on the tip were taken from the same tree of Cryptomeria japonica, and each group (five leaves for one group) was immersed in the agents (100 ml) of Tables 1 and 2. After immersing for about 1 min, the branches were taken out from the liquid and placed in a beaker. Browning changes were inspected visually on the male flower buds and needle leaves after one week. The test was performed using Cryptomeria japonica of August and November.

[2] = HLB of agent; assay type: physicochemical
[3] = branches of August, immersed about 1 min in agent, browning inspected visually after one week
[4] = branches of November, immersed about 1 min in agent, browning inspected visually after one week

Compound	change of state of male flower bud (August) [1, 3]	change of state of male flower bud (November) [1, 4]	change of state of needle leaf (August) ([1]; in vivo)	change of state of needle leaf (November) ([1]; in vivo)	change of state of needle leaf (August) [1, 3]	change of state of needle leaf (November) [1, 4]	HLB [2]
CCCCCCCC/C=C\CCCCCCCC(=O)O [Comparative Example 1, oleic acid]	markedly browned	no effect; also recorded: no change	no change	no change			
CCCCCCCC/C=C\CCCCCCCC(=O)[O-].[Na+] [compound 2, sodium oleate]	markedly browned	no effect; also recorded: no change			no change	no change	
CCCCC/C=C\C/C=C\CCCCCCCC(=O)O [compound 3, linoleic acid]	markedly browned	no effect; also recorded: no change	no change	no change			
methoxypolyoxyethylene oleic acid ester [Example 3]	browned	browned	no change	no change			
polyoxyethylene dilinoleic acid ester [Example 4]	markedly browned	markedly browned	no change	no change			
polyoxyethylene glycerol linoleic acid ester [Example 9]	browned	browned	no change	no change			
polyoxyethylene linoleic acid ester [Example 2]	markedly browned	markedly browned	no change	no change			(HLB = 10.2)
polyoxyethylene linolenic acid ester [Comparative Example 5]	an effect was obtained; also recorded: markedly browned	an effect was obtained; also recorded: markedly browned					
polyoxyethylene methylglucoside oleic acid ester [Example 8]	browned	browned	no change	no change			
polyoxyethylene oleic acid ester [Example 1]	browned	browned			no change	no change	
polyoxyethylene sorbitan oleic acid ester [Example 6]	browned	browned					
polyoxyethylene sorbitan palmitic acid ester [compound 7]	no effect; also recorded: no change	no effect; also recorded: no change					
polyoxyethylene sorbitol [Comparative Example 6]	not influenced; also recorded: no change	not influenced; also recorded: no change			not influenced; also recorded: no change	not influenced; also recorded: no change	
polyoxyethylene sorbitol linoleic acid ester [Example 7]	browned	browned	ho change	no change			
polyoxyethylene stearic acid ester [compound 4]	no effect; also recorded: no change	no effect; also recorded: no change					
polyoxyethylene-block-polyoxypropylene oleic acid ester [Example 5]	browned	browned	no change	no change			
sunflower oil [compound 9]			no change	no change			
